Patent US20260223847A1, “Compounds for Increasing Frost Tolerance in Plants” (VIB VZW, priority 2023, published 2026)

How the values were obtained:
Format in all cases: in vivo
[1] = system: Arabidopsis Col-0 seedlings; assay: Arabidopsis hypocotyl elongation (growth) assay; conditions: long day (LD: 16/8 h) conditions
Description: FIG. 1: Left: hypocotyl length of Arabidopsis Col-0 seedlings germinated on solid ½MS medium for 4 days and then transferred for 3 more days to liquid ½MS supplemented with a range of concentrations of A68. Right: primary root length of Arabidopsis Col-0 seedlings grown on solid ½MS medium supplemented with a range of concentrations of A68 for 12 days. FIG. 2: Effects of A68 and its related variants on the Arabidopsis hypocotyl elongation. Arabidopsis seedlings were grown on solid ½MS medium for 4 days and then transferred for 3 more days to liquid ½ MS supplemented with the studied compounds at either 0.5 or 50 μM final concentration. Hypocotyl length is represented relative to that of mock-treated seedlings from the same biological repeats. n>400 seedlings for DMSO and A68 initial hit (control treatments throughout the experiments), n>30 seedlings for the A68 variants. Student's two-sample t-test, *P<0.05, **P<0.01 and ***P<0.001. FIG. 3: Hypocotyl elongation dose-response curves for A68 and three bioactive variants A68-6, A68-8 and A68-53 showing the half-maximum effective concentration EC50. A bioactive compound, herein further designated as A68, was identified by screening a commercial 10,000 compound library (DIVERSet, ChemBridge Corporation) for hypocotyl elongation phenotype at a final concentration of 50 μM in 2% DMSO. […]

[2] = system: Strawberry, Fragaria ananasa, cv. Elsanta; assay: Efficacy trial against frost damage on strawberry (trial 22.RM.SAB.028)
Text: Preparation of the agronomical formulation: compound A68 is suspended in acetone at a concentration of 1 g/l. Further in this example this suspension is designated as 22.SC.040.
Trial setup: Strawberry, Fragaria ananasa, tray plants cv. Elsanta were planted in P13 pots, 1 plant per pot. The used substrate was a standard strawberry-substrate with addition of 180 g Osmocoat/651 substrate. (Osmocoat 18-5-11+4CaO+2MgO Agroblen 3-4 months).
36 plants (6 objects×6 repetitions) were randomly placed on tables with eb-flood system (21 l/2.5 m2 during 10 minutes, 2×/24 hours) in the greenhouse (22° C./10° C. day/night; 50% RH).
Foliar applications were executed in a standardized spraying cabin. A nozzle (Albuz TVI, color green) moved over the plants with a constant speed, simulating a spraying volume of 300l/ha.
At full bloom of the first flower branch, these branches were marked with a plastic strip. The plants were placed on pallets and enter a fridge at 5° C. during night, to decrease warmth in the substrate and chill the plants. The next morning, the plants were moved from the fridge to a freezing container. […]
One day and one week after frost, the flowers on the marked branches were assessed. […]
When the fruits ripen, the ripe fruits were picked. […] Also, the number of fruits were counted and the weight was measured. […]

[3] = system: Arabidopsis Col-0 seedlings; assay: Arabidopsis primary root growth / lateral root number; conditions: long day (LD: 16/8 h) conditions
Text: FIG. 1: Left: hypocotyl length of Arabidopsis Col-0 seedlings germinated on solid ½MS medium for 4 days and then transferred for 3 more days to liquid ½MS supplemented with a range of concentrations of A68. Right: primary root length of Arabidopsis Col-0 seedlings grown on solid ½MS medium supplemented with a range of concentrations of A68 for 12 days. A bioactive compound, herein further designated as A68, was identified by screening a commercial 10,000 compound library (DIVERSet, ChemBridge Corporation) for hypocotyl elongation phenotype at a final concentration of 50 μM in 2% DMSO. A68 promotes hypocotyl elongation, while suppresses primary root growth but increases lateral root number under long day (LD: 16/8 h) conditions (see FIG. 1).

[4] = system: Arabidopsis seedlings; assay: Osmotic stress tolerance in Arabidopsis seedlings (sorbitol); conditions: low concentrations; ½MS with sorbitol
Description: FIGS. 4A-4D: Effect of A68 and its variant A68-6 on Arabidopsis growth in osmotic stress conditions. The two compounds were tested at 3 different concentrations in ½MS without sucrose supplemented with 100 mM sorbitol. The extent of stress tolerance in presence of the small molecules was estimated by following the rosette size (FIG. 4A) as well as root related parameters, such as the total (FIG. 4B) and main (FIG. 4C) root length and lateral root number (FIG. 4D). Results are presented relative to the mock-treated control (0.005% DMSO). FIGS. 5A-5D: Effect of A68-6 on Arabidopsis growth in osmotic stress conditions. The compound was tested at 3 different concentrations in ½MS without sucrose supplemented with 200 mM sorbitol. The extent of stress tolerance in presence of the small molecules was estimated by following the rosette size (FIG. 5A) as well as root related parameters, such as the total (FIG. 5B) and main (FIG. 5C) root length and lateral root number (FIG. 5D). Results are presented relative to the mock-treated control (0.005% DMSO).

Cc1cccc(C(=O)Nc2ccc(Oc3ccc4c(c3)C(=O)NC4=O)cc2)c1 [Compound A68, N-(4-((1,3-dioxoisoindolin-5-yl)oxy)phenyl)-3-methylbenzamide]
hypocotyl elongation [1]: promotes
efficacy to decrease frost damage on strawberry ([2]; A68 suspended in acetone, foliar spray): clear indications of efficacy
optimal dose-rate ([2]; maximum efficacy of the Gauss-curve): around 1000 mg/ha
lateral root number [3]: increases
primary root growth [3]: suppresses
tolerance to mild osmotic stress [4]: enhance tolerance
